Experimental findings from PubChem BioAssay (NCI) are described below.

Test systems include A498 renal; IGROV1 ovarian; K-562 leukemia; OVCAR-3 ovarian; OVCAR-8 ovarian; SF-268 CNS; SN12C renal; SR leukemia; SW-620 colon.
Common to all, as to assay: NCI anticancer screen, dose series, 48 h

The structures appear in SMILES notation.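 Cultured in 96-well plates, cells were exposed to test compound for 48 hours across five concentrations. GI50 = concentration required for 50% inhibition of growth. TGI: concentration producing complete growth inhibition.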 A value given as a limit tells only on which side of the number the result lay.

As to `O=C(NNc1ccc(Cl)cc1)C1CCC(CNS(=O)(=O)c2ccccc2Cl)CC1` (stereo not given), the GI50 in the experiment on A498 renal was 31.3 µM; in the experiment on IGROV1 ovarian, 42.5 µM; in the experiment with K-562 leukemia, 1.96 µM; with OVCAR-3 ovarian, 8.68 µM; in the experiment on OVCAR-8 ovarian it was 21.6 µM; in the experiment with SF-268 CNS it was 8.31 µM. Further, the GI50 in the experiment with SN12C renal is 14.7 µM; with SR leukemia, 10.2 µM; with SW-620 colon, 40.6 µM. The TGI with A498 renal is 74.9 µM; with IGROV1 ovarian it was > 100 µM; in the experiment on K-562 leukemia, 5.73 µM; in the experiment with OVCAR-3 ovarian, 39.8 µM; in the experiment with OVCAR-8 ovarian, > 100 µM; with SF-268 CNS, > 100 µM. Further, the TGI with SN12C renal was 50.9 µM; in the experiment on SR leukemia it was 66.4 µM; with SW-620 colon, > 100 µM.
For `Cc1ccc(NC(=O)C(=O)CC(=O)c2c(C)n([O-])c3ccccc3[n+]2=O)cc1C`, the TGI with A498 renal, in the experiment with IGROV1 ovarian, in the experiment with K-562 leukemia, in the experiment on OVCAR-3 ovarian, in the experiment with OVCAR-8 ovarian and in the experiment on SF-268 CNS was > 100 µM throughout. The TGI with SN12C renal, with SR leukemia and in the experiment on SW-620 colon was > 100 µM in each case.
`CN(C)CC1CC/C(=C\c2ccc3c(c2)OCO3)C1=O` (stereo not given): the TGI in the experiment on A498 renal is 52.1 µM; in the experiment on IGROV1 ovarian, 26.9 µM; with K-562 leukemia, 11.4 µM; with OVCAR-3 ovarian, 15.3 µM; in the experiment on OVCAR-8 ovarian it was 19.2 µM; with SF-268 CNS, 26.7 µM. Besides, the results for the TGI with SN12C renal, in the experiment on SR leukemia and in the experiment on SW-620 colon were 30.3 µM, 11 µM and 14.4 µM, respectively.
As for `CC(C)N(Cc1ccc(CN(C(=O)CCl)C(C)C)cc1)C(=O)CCl`, the GI50 with A498 renal is 1.9 µM; with IGROV1 ovarian, 0.629 µM; with K-562 leukemia it was 2.28 µM; with OVCAR-3 ovarian it was 1.69 µM; in the experiment on OVCAR-8 ovarian it was 2.08 µM; with SF-268 CNS, 1.66 µM. Further, the GI50 with SN12C renal was 1.49 µM; in the experiment on SR leukemia it was 0.225 µM; with SW-620 colon it was 1.45 µM. For the same compound, the TGI in the experiment with A498 renal was found to be 4.27 µM; in the experiment on IGROV1 ovarian, 2.55 µM; in the experiment on K-562 leukemia, 18.3 µM; with OVCAR-3 ovarian it was 3.22 µM; in the experiment with OVCAR-8 ovarian, 6.43 µM; in the experiment with SF-268 CNS it was 3.49 µM. Further, the values for the TGI in the experiment on SN12C renal, with SR leukemia and in the experiment on SW-620 colon were 3.71 µM, 0.838 µM and 4.22 µM, respectively.
With `CCN(CC)CC1CCCCN1CC(=O)N1CC(C)C(=O)Nc2ccccc21` (stereo not given), the TGI with A498 renal, in the experiment with IGROV1 ovarian, in the experiment with K-562 leukemia, with OVCAR-3 ovarian, in the experiment on SF-268 CNS and with SN12C renal was > 100 µM each time. Further, the TGI with SR leukemia and with SW-620 colon was > 100 µM in each case.
Regarding `C1CCCCc2nc3c(nc2CCC1)c1nc2c(nc1c1nc4c(nc31)CCCCCCCC4)CCCCCCCC2`, the TGI in the experiment with A498 renal, in the experiment with IGROV1 ovarian, with K-562 leukemia, in the experiment on OVCAR-8 ovarian, in the experiment on SF-268 CNS and in the experiment on SN12C renal was > 100 µM throughout. Also, the TGI in the experiment with SR leukemia and in the experiment on SW-620 colon was > 100 µM in each case.
`COCCOc1cc(C)cc(/C=C(C)/C=C/C2=C(C)CCCC2(C)C)n1`: the TGI in the experiment with A498 renal, in the experiment with IGROV1 ovarian, in the experiment with OVCAR-3 ovarian, in the experiment on OVCAR-8 ovarian, in the experiment on SF-268 CNS and in the experiment on SN12C renal was > 100 µM in each case. For the same compound, the TGI with SR leukemia and in the experiment on SW-620 colon was > 100 µM throughout.
Turning to `Cc1ccc(C)c(N2C(=O)C(=O)C(c3nc4ccccc4o3)C(=O)C2=O)c1`, the TGI in the experiment on A498 renal, in the experiment with IGROV1 ovarian, with OVCAR-3 ovarian, in the experiment on OVCAR-8 ovarian, in the experiment on SF-268 CNS and with SN12C renal was > 100 µM throughout. The TGI with SR leukemia and in the experiment with SW-620 colon was > 100 µM in each case.
Turning to `CCOC(=O)/C(=C/c1cccc(Cl)c1)N(CC)CC`, the TGI in the experiment on A498 renal, with IGROV1 ovarian, in the experiment on K-562 leukemia, in the experiment with OVCAR-8 ovarian, with SF-268 CNS and with SN12C renal was > 100 µM in each case. Moreover, the TGI in the experiment with SR leukemia and in the experiment with SW-620 colon was > 100 µM throughout.
Regarding `CC1=C(SC#N)S(=O)(=O)N(c2ccccc2)C(C)=C1SC#N`, the TGI in the experiment on A498 renal was 92.1 µM; in the experiment on IGROV1 ovarian, > 100 µM; in the experiment with K-562 leukemia, 66 µM; in the experiment on OVCAR-8 ovarian it was > 100 µM; in the experiment on SF-268 CNS it was > 100 µM; in the experiment on SN12C renal it was > 100 µM. Besides, the TGI with SR leukemia was 65.5 µM; with SW-620 colon it was > 100 µM.
With `CC(C)c1cc(C(C)C)c(S(=O)(=O)N=[N+]=[N-])c(C(C)C)c1`, the TGI in the experiment with IGROV1 ovarian, in the experiment on K-562 leukemia, in the experiment on OVCAR-3 ovarian, with OVCAR-8 ovarian, with SF-268 CNS and with SN12C renal was > 100 µM throughout. The TGI with SR leukemia and in the experiment with SW-620 colon was > 100 µM in each case.
